ChEMBL document CHEMBL3779807, “Synthesis and structure-activity relationship of α-keto amides as enterovirus 71 3C protease inhibitors” (Bioorg Med Chem Lett, 2016)

What was measured:
[1] = Inhibition of EV71 3C protease using NMA-IEALFQGPPK(DNP)FR as substrate preincubated for 30 mins followed by addition of substrate measured after 2 hrs by FRET assay; set-up: species or system Enterovirus A71
[2] = system: Enterovirus A71; test: Antiviral activity against EV71 pseudotype virus infected in RD cells after 24 hrs by Bright-Glo luciferase assay; assay type: functional, organism-based; conditions: Enterovirus A
[3] = Cytotoxicity against human RD cells assessed viable cells after 24 hrs by WST-1 assay; assay type: cell-based

Row | SMILES | IC50 [1] [µM] | EC50 [2] [µM] | CC50 at 24 h [3] [µM]
1 | CCCNC(=O)C(=O)[C@H](C[C@@H]1CCCNC1=O)NC(=O)[C@H](Cc1ccccc1)NC(=O)/C=C/c1ccccc1 | 6.22 | 4.59 | > 100
2 | O=C(/C=C/c1ccccc1)N[C@@H](Cc1ccccc1)C(=O)N[C@@H](C[C@@H]1CCCNC1=O)C(=O)C(=O)NCc1ccccc1 | 7.83 | 5.42 | > 100
3 | O=C(/C=C/c1ccccc1)N[C@@H](Cc1ccccc1)C(=O)N[C@@H](C[C@@H]1CCCNC1=O)C(=O)C(=O)NC1CCCCC1 | 4.86 | 2.63 | > 100
4 | CC(C)(C)OC(=O)N[C@@H](Cc1ccc(F)cc1)C(=O)N[C@@H](C[C@@H]1CCCNC1=O)C(=O)C(=O)NC1CC1 | 1.78 | 1.68 | > 100
5 | CC(C)NC(=O)C(=O)[C@H](C[C@@H]1CCCNC1=O)NC(=O)[C@H](Cc1ccc(F)cc1)NC(=O)/C=C/c1ccccc1 | 1.32 | 1.12 | > 100
6 | O=C(/C=C/c1ccccc1)N[C@@H](Cc1ccc(F)cc1)C(=O)N[C@@H](C[C@@H]1CCCNC1=O)C(=O)C(=O)NC1CC1 | 1.52 | 1.55 | > 100
7 | O=C(/C=C/c1ccccc1)N[C@@H](Cc1ccccc1)C(=O)N[C@@H](C[C@@H]1CCCNC1=O)C(=O)C(=O)NC1CC1 | 3.32 | 3.57 | > 100
8 | CCCNC(=O)C(=O)[C@H](C[C@@H]1CCCNC1=O)NC(=O)[C@H](Cc1ccc(F)cc1)NC(=O)/C=C/c1ccccc1 | 1.88 | 1.08 | > 100
9 | Cc1ccc(NC(=O)C(=O)[C@H](C[C@@H]2CCCNC2=O)NC(=O)[C@H](Cc2ccccc2)NC(=O)/C=C/c2ccccc2)cc1 | > 20 | > 20 | > 100
10 | CCCCCCCCCCCCNC(=O)C(=O)[C@H](C[C@@H]1CCCNC1=O)NC(=O)[C@H](Cc1ccccc1)NC(=O)/C=C/c1ccccc1 | > 20 | > 20 | > 100
11 | O=C(/C=C/c1ccccc1)N[C@@H](Cc1ccccc1)C(=O)N[C@@H](C[C@@H]1CCCNC1=O)C(=O)C(=O)NCc1ccco1 | 6.3 | 4.5 | > 100
12 | CCCCCNC(=O)C(=O)[C@H](C[C@@H]1CCCNC1=O)NC(=O)[C@H](Cc1ccccc1)NC(=O)/C=C/c1ccccc1 | > 20 | > 20 | > 100
13 | CCCCNC(=O)C(=O)[C@H](C[C@@H]1CCCNC1=O)NC(=O)[C@H](Cc1ccccc1)NC(=O)/C=C/c1ccccc1 | 8.21 | 11.6 | > 100
14 | CC(C)(C)NC(=O)C(=O)[C@H](C[C@@H]1CCCNC1=O)NC(=O)[C@H](Cc1ccccc1)NC(=O)/C=C/c1ccccc1 | > 20 | > 20 | > 100
15 | CC(C)CNC(=O)C(=O)[C@H](C[C@@H]1CCCNC1=O)NC(=O)[C@H](Cc1ccccc1)NC(=O)/C=C/c1ccccc1 | 5.07 | 11 | > 100
16 | O=C(/C=C/c1ccccc1)N[C@@H](Cc1ccc(F)cc1)C(=O)N[C@@H](C[C@@H]1CCCNC1=O)C(=O)C(=O)NC1CCCCC1 | 3.71 | 2.78 | > 100
17 | CCCCNC(=O)C(=O)[C@H](C[C@@H]1CCNC1=O)NC(=O)[C@H](Cc1ccccc1)NC(=O)/C=C/c1ccccc1 | 17.6 | 15.5 | > 100
18 | CCCCCCNC(=O)C(=O)[C@H](C[C@@H]1CCCNC1=O)NC(=O)[C@H](Cc1ccccc1)NC(=O)/C=C/c1ccccc1 | > 20 | > 20 | > 100
19 | CC(C)NC(=O)C(=O)[C@H](C[C@@H]1CCNC1=O)NC(=O)[C@H](Cc1ccccc1)NC(=O)/C=C/c1ccccc1 | 8.75 | 6.45 | > 100
20 | O=C(/C=C/c1ccccc1)N[C@@H](Cc1ccccc1)C(=O)N[C@@H](C[C@@H]1CCNC1=O)C(=O)C(=O)NC1CCCCC1 | 12.7 | 8.12 | > 100
21 | O=C(/C=C/c1ccccc1)N[C@@H](Cc1ccccc1)C(=O)N[C@@H](C[C@@H]1CCCNC1=O)C(=O)C(=O)Nc1ccccc1 | > 20 | > 20 | > 100
22 | CNC(=O)C(=O)[C@H](C[C@@H]1CCCNC1=O)NC(=O)[C@H](Cc1ccccc1)NC(=O)/C=C/c1ccccc1 | 4.08 | 9.59 | > 100
23 | O=C(/C=C/c1ccccc1)N[C@@H](Cc1ccccc1)C(=O)N[C@@H](C[C@@H]1CCNC1=O)C(=O)C(=O)Nc1ccccc1 | > 20 | > 20 | > 100
24 | CC(C)NC(=O)C(=O)[C@H](C[C@@H]1CCCNC1=O)NC(=O)[C@H](Cc1ccccc1)NC(=O)/C=C/c1ccccc1 | 1.34 | 1.66 | > 100
25 | CC(C)NC(=O)C(=O)[C@H](CC1CCCNC1=O)NC(=O)[C@H](Cc1ccc(F)cc1)NC(=O)OCc1ccccc1 (single isomer, unassigned) | 1.42 | 1.32 | > 100
26 | O=C(/C=C/c1ccccc1)NC(Cc1ccccc1)C(=O)NC(CC1CCNC1=O)C(=O)C(=O)NCc1ccccc1 (single isomer, unassigned) | > 20 | > 20 | > 100
27 | O=C(/C=C/c1ccccc1)NC(Cc1ccccc1)C(=O)NC(CC1CCCNC1=O)C(=O)C(=O)Nc1ccc([N+](=O)[O-])cc1 (single isomer, unassigned) | > 20 | > 20 | > 100
